# Biological target: T1, human GPBAR1 receptor (Homo sapiens, UniProt Q8TDU6)
# T1 construct: expressed in transfected cells
# T1 sequence (Q8TDU6 1-330): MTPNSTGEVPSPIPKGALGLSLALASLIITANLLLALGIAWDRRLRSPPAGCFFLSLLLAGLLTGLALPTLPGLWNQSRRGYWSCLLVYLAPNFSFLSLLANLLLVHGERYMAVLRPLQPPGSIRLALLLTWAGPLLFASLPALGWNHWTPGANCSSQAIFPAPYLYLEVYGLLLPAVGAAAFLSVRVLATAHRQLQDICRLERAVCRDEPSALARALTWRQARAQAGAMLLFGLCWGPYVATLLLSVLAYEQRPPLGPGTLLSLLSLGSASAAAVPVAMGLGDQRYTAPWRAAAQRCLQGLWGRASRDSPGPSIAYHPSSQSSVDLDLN
# Experiment: functional cAMP assay in CHO-dhfr(minus) cells expressing human GPBAR1 receptors
# Assay type: cell-based
# Conditions: cAMP increase (TR-FRET) in CHO-dhfr(minus) cells expressing human GPBAR1; compounds incubated 30 min at 30° C.
row,Structure (SMILES),EC50 [nM]
1,"O=C(O)CNC(=O)CCc1cc(Cl)c(Oc2ncccc2C(=O)N2CCN(C3CC3)c3ccccc32)cc1Cl [Example 177, (3-{2,5-Dichloro-4-[3-(4-cyclopropyl-3,4-dihydro-2H-quinoxaline-1-carbonyl)-pyridin-2-yloxy]-phenyl}-propionylamino)-acetic acid]",63
2,"O=C(O)/C=C/c1cc(Cl)c(Oc2ncccc2C(=O)N2CCN(C3CC3)c3ccccc32)cc1Cl [Example 172, 3-{2,5-Dichloro-4-[3-(4-cyclopropyl-3,4-dihydro-2H-quinoxaline-1-carbonyl)-pyridin-2-yloxy]-phenyl}-acrylic acid]",132
3,"CCc1cccc(Oc2ncccc2C(=O)N2CCCc3ccccc32)c1 [Example 20, (3,4-Dihydro-2H-quinolin-1-yl)-[2-(3-ethyl-phenoxy)-pyridin-3-yl]-methanone]",473
4,"O=C(c1ccncc1Oc1cc(Cl)ccc1Cl)N1CCCc2cc(F)cc(F)c21 [Example 92, [3-(2,5-Dichloro-phenoxy)-pyridin-4-yl]-(6,8-difluoro-3,4-dihydro-2H-quinolin-1-yl)-methanone]",7
5,"O=C(c1cc(F)cnc1Oc1cc(Cl)ccc1Cl)N1CCN(CC2CCC2)c2ccccc21 [Example 152, (4-Cyclobutylmethyl-3,4-dihydro-2H-quinoxalin-1-yl)-[2-(2,5-dichloro-phenoxy)-5-fluoro-pyridin-3-yl]-methanone]",689
6,"O=C(c1cccnc1Oc1cc(Cl)ccc1Cl)N1CCNc2ccccc21 [Example 122, [2-(2,5-Dichloro-phenoxy)-pyridin-3-yl]-(3,4-dihydro-2H-quinoxalin-1-yl)-methanone]",62
7,"O=C(O)CN1CCN(C(=O)c2cc(F)cnc2Oc2cc(Cl)ccc2Cl)c2ccccc21 [Example 155, {4-[2-(2,5-Dichloro-phenoxy)-5-fluoro-pyridine-3-carbonyl]-3,4-dihydro-2H-quinoxalin-1-yl}-acetic acid]",788
8,"O=C(c1cccnc1Oc1cc(Cl)ccc1Cl)N1CCCc2cc(F)c(F)cc21 [Example 38, [2-(2,5-Dichloro-phenoxy)-pyridin-3-yl]-(6,7-difluoro-3,4-dihydro-2H-quinolin-1-yl)-methanone]",57
9,"O=C(c1cccnc1Oc1cccc(Cl)c1)N1CCCc2ccccc21 [Example 3, [2-(3-Chloro-phenoxy)-pyridin-3-yl]-(3,4-dihydro-2H-quinolin-1-yl)-methanone]",192
10,"N#Cc1cccc(Oc2ncccc2C(=O)N2CCCc3ccccc32)c1 [Example 7, 3-[3-(3,4-Dihydro-2H-quinoline-1-carbonyl)-pyridin-2-yloxy]-benzonitrile]",575
11,"O=C(c1cc(F)cnc1Oc1ccc(F)c(Cl)c1)N1CCCc2ccccc21 [Example 86, [2-(3-Chloro-4-fluoro-phenoxy)-5-fluoro-pyridin-3-yl]-(3,4-dihydro-2H-quinolin-1-yl)-methanone]",96
12,"CN(C(=O)c1cccnc1Oc1cc(Cl)ccc1Cl)c1ccccc1-n1cccc1 [Example 65, 2-(2,5-Dichloro-phenoxy)-N-methyl-N-(2-pyrrol-1-yl-phenyl)-nicotinamide]",357
13,"CN(C(=O)c1cccnc1Oc1cc(Cl)ccc1Cl)c1ccccc1 [Example 35, 2-(2,5-Dichloro-phenoxy)-N-methyl-N-phenyl-nicotinamide]",283
14,"N#Cc1ccc(Oc2cc(Cl)ccc2Cl)c(C(=O)N2CCCc3ccccc32)c1 [Example 119, 4-(2,5-Dichloro-phenoxy)-3-(3,4-dihydro-2H-quinoline-1-carbonyl)-benzo nitrile]",165
15,"O=C(c1cccnc1Oc1cc(Cl)ccc1Cl)N1CCCc2cc(Cl)ccc21 [Example 71, (6-Chloro-3,4-dihydro-2H-quinolin-1-yl)-[2-(2,5-dichloro-phenoxy)-pyridin-3-yl]-methanone]",436
16,"Cc1cccc2c1N(C(=O)c1cc(F)ccc1Oc1cc(Cl)ccc1Cl)CCC2 [Example 115, [2-(2,5-Dichloro-phenoxy)-5-fluoro-phenyl]-(8-methyl-3,4-dihydro-2H-quinolin-1-yl)-methanone]",920
17,"O=C(O)C/C=C/c1cc(Cl)c(Oc2ncccc2C(=O)N2CCN(C3CC3)c3ccccc32)cc1Cl [Example 175, 4-{2,5-Dichloro-4-[3-(4-cyclopropyl-3,4-dihydro-2H-quinoxaline-1-carbonyl)-pyridin-2-yloxyl]-phenyl}-but-3-enoic acid]",843
18,"O=C(c1cc(Cl)cnc1Oc1cc(F)ccc1F)N1CCCc2ccccc21 [Example 28, [5-Chloro-2-(2,5-difluoro-phenoxy)-pyridin-3-yl]-(3,4-dihydro-2H-quinolin-1-yl)-methanone]",1980
19,"COc1ncccc1N(C)C(=O)c1cccnc1Oc1cc(Cl)ccc1Cl [Example 48, 2-(2,5-Dichloro-phenoxy)-N-(2-methoxy-pyridin-3-yl)-N-methyl-nicotinamide]",66

row,Structure (SMILES),EC50 [nM]
1,"Cc1cc(F)c2c(c1)CCCN2C(=O)c1ccccc1Oc1cc(Cl)ccc1Cl [Example 120, [2-(2,5-Dichloro-phenoxy)-phenyl]-(8-fluoro-6-methyl-3,4-dihydro-2H-quinolin-1-yl)-methanone]",1650
2,"O=C(c1cccnc1Oc1cc(Cl)ccc1Cl)N1CCN(C2COC2)c2ccccc21 [Example 127, [2-(2,5-Dichloro-phenoxy)-pyridin-3-yl]-(4-oxetan-3-yl-3,4-dihydro-2H-quinoxalin-1-yl)-methanone]",14
3,"O=C(c1cc(F)cnc1Oc1cc(F)ccc1F)N1CCCc2ccccc21 [Example 26, [2-(2,5-Difluoro-phenoxy)-5-fluoro-pyridin-3-yl]-(3,4-dihydro-2H-quinolin-1-yl)-methanone]",106
4,"O=C(c1cccnc1Oc1ccc(Cl)cc1Cl)N1CCCc2ccccc21 [Example 76, [2-(2,4-Dichloro-phenoxy)-pyridin-3-yl]-(3,4-dihydro-2H-quinolin-1-yl)-methanone]",1960
5,"O=C(c1cc(F)cnc1Oc1cc(Cl)ccc1Cl)N1CCNc2ccccc21 [Example 147, [2-(2,5-Dichloro-phenoxy)-5-fluoro-pyridin-3-yl]-(3,4-dihydro-2H-quinoxalin-1-yl)-methanone]",15
6,"Cc1ccc(N(C)C(=O)c2cccnc2Oc2cc(Cl)ccc2Cl)c(C)c1 [Example 58, 2-(2,5-Dichloro-phenoxy)-N-(2,4-dimethyl-phenyl)-N-methyl-nicotinamide]",758
7,"O=C(c1cccnc1Oc1ccc(Cl)c(Cl)c1)N1CCCc2ccccc21 [Example 6, [2-(3,4-Dichloro-phenoxy)-pyridin-3-yl]-(3,4-dihydro-2H-quinolin-1-yl)-methanone]",996
8,"COc1ccccc1N(C)C(=O)c1ccncc1Oc1ccc(F)c(Cl)c1 [Example 108, 3-(3-Chloro-4-fluoro-phenoxy)-N-(2-methoxy-phenyl)-N-methyl-isonicotinamide]",122
9,"O=C(c1cccnc1Oc1ccccc1Cl)N1CCCc2ccccc21 [Example 2, [2-(2-Chloro-phenoxy)-pyridin-3-yl]-(3,4-dihydro-2H-quinolin-1-yl)-methanone]",989
10,"O=C(c1cccnc1Oc1cc(Cl)ccc1Cl)N1CCN(C2CC2)c2ccccc21 [Example 125, (4-Cyclopropyl-3,4-dihydro-2H-quinoxalin-1-yl)-[2-(2,5-dichloro-phenoxy)-pyridin-3-yl]-methanone]",4
11,"O=C(c1cccnc1Oc1cccc(I)c1)N1CCCc2ccccc21 [Example 21, (3,4-Dihydro-2H-quinolin-1-yl)-[2-(3-iodo-phenoxy)-pyridin-3-yl]-methanone]",345
12,"O=C(c1cc(F)cnc1Oc1cccc(Cl)c1)N1CCCc2cc(F)c(F)cc21 [Example 85, [2-(3-Chloro-phenoxy)-5-fluoro-pyridin-3-yl]-(6,7-difluoro-3,4-dihydro-2H-quinolin-1-yl)-methanone]",231
13,"O=C(c1cccnc1Oc1cc(F)cc(Cl)c1)N1CCCc2ccccc21 [Example 13, [2-(3-Chloro-5-fluoro-phenoxy)-pyridin-3-yl]-(3,4-dihydro-2H-quinolin-1-yl)-methanone]",149
14,"CN(C(=O)c1cccnc1Oc1cc(Cl)ccc1Cl)c1ccc(F)cc1F [Example 66, 2-(2,5-Dichloro-phenoxy)-N-(2,4-difluoro-phenyl)-N-methyl-nicotinamide]",518
15,"O=C(c1cc(F)ccc1Oc1cc(Cl)ccc1Cl)N1CCCc2ccccc21 [Example 113, [2-(2,5-Dichloro-phenoxy)-5-fluoro-phenyl]-(3,4-dihydro-2H-quinolin-1-yl)-methanone]",149
16,"O=C(c1cccnc1Oc1cc(C(F)(F)F)cc(Cl)c1F)N1CCCc2ccccc21 [Example 22, [2-(3-Chloro-2-fluoro-5-trifluoromethyl-phenoxy)-pyridin-3-yl]-(3,4-dihydro-2H-quinolin-1-yl)-methanone]",651
17,"CN(C(=O)c1cccnc1Oc1cc(Cl)ccc1Cl)c1ccccc1Cl [Example 40, N-(2-Chloro-phenyl)-2-(2,5-dichloro-phenoxy)-N-methyl-nicotinamide]",103
18,"COC(=O)C/C=C/c1cc(Cl)c(Oc2ncccc2C(=O)N2CCN(C3CC3)c3ccccc32)cc1Cl [Example 174, 4-{2,5-Dichloro-4-[3-(4-cyclopropyl-3,4-dihydro-2H-quinoxaline-1-carbonyl)-pyridin-2-yloxy]-phenyl}-but-3-enoic acid methyl ester]",29
19,"CC1CCc2ccccc2N1C(=O)c1cccnc1Oc1cc(Cl)ccc1Cl (centres unmarked) [Example 67, [2-(2,5-Dichloro-phenoxy)-pyridin-3-yl]-(2-methyl-3,4-dihydro-2H-quinolin-1-yl)-methanone]",1690

# From patent publication US8309734B2 (Hoffmann-La Roche Inc., priority 2008, dated 2012)
